Read-outs that look alike come from different tables or passages of the source.
Target: recombinant eIF4E (Homo sapiens (Human), UniProt P06730)
Assay: Fluorescence polarization competition assay for eIF4E binding potency
Procedure, shortened: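 IC50 derived from fluorescence polarization over an 8-point, 3-fold compound series after 30 min room-temperature equilibration in the dark. Mix: eIF4E 75 nM pre-bound 5 min to 20 nM EDA-m^7GDP-ATTO-550; buffer 20 mM Tris pH 7.5, 100 mM NaCl, 1 mM DTT, 0.02% Tween-20; DMSO 1%.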

[1] = fluorescence polarization competition, 75 nM recombinant eIF4E, 20 nM EDA-m7GDP-ATTO-550, IC50 class, read-out: elF4E FP
[2] = inhibition of eIF4E/EDA-m7GDP-ATTO-550 binding by 50%, Table 4B calculated values, read-out: IC50

recombinant eIF4E, sequence (P06730 whole entry): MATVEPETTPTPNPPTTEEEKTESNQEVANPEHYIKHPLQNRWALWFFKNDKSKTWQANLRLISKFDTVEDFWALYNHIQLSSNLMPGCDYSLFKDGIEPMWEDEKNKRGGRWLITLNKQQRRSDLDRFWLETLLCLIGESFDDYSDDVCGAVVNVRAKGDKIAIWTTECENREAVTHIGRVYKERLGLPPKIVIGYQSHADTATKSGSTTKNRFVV

IC50 [1] [nM]	IC50 [2] [nM]	SMILES
< 50	45	Cc1cc(-c2c(C(F)(F)F)cc3nc(C)n(CCOc4ccc(Cl)cc4-c4cc(C)nc5c(C(=O)O)csc45)c(=O)c3c2C#N)ccn1 [compound 341]
< 50	47.4	Cc1cc(-c2cc(Cl)ccc2OCCn2c(C)nc3cc(C(F)(F)F)c(-c4cncc(F)c4)c(C#N)c3c2=O)c2scc(C(=O)O)c2n1 [compound 342]
< 50	41.8	Cc1cc(-c2cc(Cl)ccc2OCCn2c(C)nc3cc(C(F)(F)F)c(-c4cnccc4F)c(C#N)c3c2=O)c2scc(C(=O)O)c2n1 [compound 343]
< 50	32.1	Cc1cc(-c2cc(Cl)ccc2OCCn2c(C)nc3cc(C(F)(F)F)c(-c4ccncc4F)c(C#N)c3c2=O)c2scc(C(=O)O)c2n1 [compound 344]
< 50	18.1	Cc1cc(-c2cc(Cl)ccc2OCCn2c(C)nc3cc(C(F)(F)F)c(-c4ccccc4CO)nc3c2=O)c2scc(C(=O)O)c2n1 [compound 346]
< 50	32.1	Cc1cc(-c2cc(Cl)ccc2OCCn2c(C)nc3cc(C(F)(F)F)c(-c4cnsc4)c(C#N)c3c2=O)c2scc(C(=O)O)c2n1 [compound 347]
< 50	15.4	Cc1cc(-c2cc(Cl)ccc2OCCn2c(C)nc3cc(C(F)(F)F)c(-c4ccns4)c(C#N)c3c2=O)c2scc(C(=O)O)c2n1 [compound 348]
< 50	5.84	Cc1ccc(-c2c(C(F)(F)F)cc3nc(C)n(CCOc4ccc(Cl)cc4-c4cc(C)nc5c(C(=O)O)csc45)c(=O)c3c2C#N)c(C)n1 [compound 349]
< 50	14.2	Cc1cc(C)c(-c2c(C(F)(F)F)cc3nc(C)n(CCOc4ccc(Cl)cc4-c4cc(C)nc5c(C(=O)O)csc45)c(=O)c3c2C#N)cn1 [compound 350]
> 1000	1270	Cc1nc2cc(C(F)(F)F)cc(C#N)c2c(=O)n1CCOc1ccc(Cl)cc1-c1ccnc2c(C(C)(C)O)csc12 [compound 352]
50 to 1000	101	Cn1cc(CCOc2ccc(Cl)cc2-c2ccnc3c(C(=O)O)csc23)c(=O)c2c(C#N)cc(C(F)(F)F)cc21 [compound 353]
50 to 1000	146	CN1c2cc(C(F)(F)F)cc(C#N)c2C(=O)N(CCOc2ccc(Cl)cc2-c2ccnc3c(C(=O)O)csc23)C1(C)C [compound 355]
> 1000	1220	Cc1nc2cc(C(F)(F)F)cc(C#N)c2c(=O)n1CCOc1[nH]c(=O)c(Cl)cc1-c1ccnc2c(C(=O)O)csc12 [compound 356]
50 to 1000	86.3	Cc1nc2c(C(F)(F)F)ccc(C#N)c2c(=O)n1CCOc1ccc(Cl)cc1-c1ccnc2c(C(=O)O)csc12 [compound 358]
< 50	48.9	Cc1nc2c(OC(F)F)ccc(C#N)c2c(=O)n1CCOc1ccc(Cl)cc1-c1ccnc2c(C(=O)O)csc12 [compound 359]
< 50	42.6	Cc1nc2c(C(F)F)ccc(C#N)c2c(=O)n1CCOc1ccc(Cl)cc1-c1ccnc2c(C(=O)O)csc12 [compound 360]
50 to 1000	68.4	Cc1c(CCOc2ccc(Cl)cc2-c2ccnc3c(C(=O)O)csc23)c(=O)c2c(C#N)c(Cl)c(C(F)(F)F)cc2n1C [compound 361]
50 to 1000	72.2	Cc1c(CCOc2ccc(Cl)cc2-c2ccnc3c(C(=O)O)csc23)c(=O)c2c(C#N)cc(C(F)(F)F)cc2n1CCF [compound 362]
< 50	22.8	Cc1cc(-c2cc(Cl)ccc2OCCn2c(C)nc3cc(C(F)(F)F)c(C)c(C#N)c3c2=O)c2scc(C(=O)O)c2n1 [compound 363]
50 to 1000	107	Cc1cc(-c2cc(Cl)ccc2OCCn2c(C)nc3c(C)c(C(F)(F)F)cc(C#N)c3c2=O)c2scc(C(=O)O)c2n1 [compound 364]
< 50	19	Cc1cc(-c2cc(Cl)ccc2OCCn2c(C)nc3cnc(CCN(C)C)c(C#N)c3c2=O)c2scc(C(=O)O)c2n1 [compound 365]
< 50	6.66	Cc1cc(-c2cc(Cl)ccc2OCCn2c(C)nc3cc(F)c(CN4CCN(C)CC4)c(C#N)c3c2=O)c2scc(C(=O)O)c2n1 [compound 366]
< 50	2.87	Cc1cc(-c2cc(Cl)ccc2OCCn2c(C)nc3cc(F)c(CN4CCOCC4)c(C#N)c3c2=O)c2scc(C(=O)O)c2n1 [compound 367]
< 50	41.1	Cc1cc(-c2cc(Cl)ccc2OCCn2c(C)nc3cc(F)c(C)c(C#N)c3c2=O)c2scc(C(=O)O)c2n1 [compound 368]
< 50	1.32	COc1c(CN(C)C)cc2nc(C)n(CCOc3ccc(Cl)cc3-c3cc(C)nc4c(C(=O)O)csc34)c(=O)c2c1C#N [compound 369]
< 50	12.1	Cc1cc(-c2cc(Cl)ccc2OCCn2c(C)nc3cc(CN(C)C)c(OC(C)C)c(C#N)c3c2=O)c2scc(C(=O)O)c2n1 [compound 370]

IC50 [1] [nM]	IC50 [2] [nM]	SMILES
< 50	20	Cc1cc(-c2cc(Cl)ccc2OCCn2c(C)nc3ccc(OC(C)C)c(C#N)c3c2=O)c2scc(C(=O)O)c2n1 [compound 371]
< 50	7.34	Cc1cc(-c2cc(Cl)ccc2OCCn2c(C)nc3c(C(F)F)ncc(C#N)c3c2=O)c2scc(C(=O)O)c2n1 [compound 372]
< 50	6.43	Cc1cc(-c2cc(Cl)ccc2OCCn2c(C)nc3cc(C(F)(F)F)c(C4=CCN(C)CC4)c(C#N)c3c2=O)c2scc(C(=O)O)c2n1 [compound 373]
< 50	20.5	Cc1nc2cc(C(F)(F)F)c(N3CCN(C)CC3)c(C#N)c2c(=O)n1CCOc1ccc(Cl)cc1-c1cccc(C(=O)O)c1 [compound 374]
50 to 1000	58	Cc1cccc(-c2c(C(F)(F)F)cc3nc(C)n(CCOc4ccc(Cl)cc4-c4cccc(C(=O)O)c4)c(=O)c3c2C#N)n1 [compound 375]
< 50	12.7	Cc1nc2cc(C(F)(F)F)c(CC3CN(CC(F)F)C3)c(C#N)c2c(=O)n1CCOc1ccc(Cl)cc1-c1ccnc2c(C(=O)O)csc12 [compound 376]
50 to 1000	61.2	Cc1nc2cc(C(F)(F)F)c(N3CCN(CC(F)F)CC3)c(C#N)c2c(=O)n1CCOc1ccc(Cl)cc1-c1cccc(C(=O)O)c1 [compound 377]
< 50	45.1	CC(=O)N1CCN(c2c(C(F)(F)F)cc3nc(C)n(CCOc4ccc(Cl)cc4-c4cccc(C(=O)O)c4)c(=O)c3c2C#N)CC1 [compound 378]
< 50	26.7	Cc1nc2cc(C(F)(F)F)c(N3CCN(c4ccccn4)CC3)c(C#N)c2c(=O)n1CCOc1ccc(Cl)cc1-c1cccc(C(=O)O)c1 [compound 379]
< 50	29.7	Cc1nc2cc(C(F)(F)F)c(N3CCN(c4cccnc4)CC3)c(C#N)c2c(=O)n1CCOc1ccc(Cl)cc1-c1cccc(C(=O)O)c1 [compound 380]
< 50	20.9	Cc1nc2cnc(C3CC3)c(C#N)c2c(=O)n1CC#Cc1ccc(Cl)cc1-c1ccnc2c(C(=O)O)csc12 [compound 384]
< 50	39.5	Cc1cc(-c2cc(Cl)ccc2OCCn2c(C)nc3cnc(C4CC4)c(C#N)c3c2=O)c2scc(C(=O)NS(C)(=O)=O)c2n1 [compound 385]
< 50	25.4	Cc1nc2cc(C(F)(F)F)c(-c3ccncc3)c(C#N)c2c(=O)n1CCOc1ccc(Cl)cc1-c1cccc(C(=O)O)c1 [compound 386]
50 to 1000	619	Cc1nc2cc(C(F)(F)F)c(N3CCN(c4ccncc4)CC3)c(C#N)c2c(=O)n1CCOc1ccc(Cl)cc1-c1cccc(C(=O)O)c1 [compound 387]
< 50	6.29	Cc1nc2cc(C(F)(F)F)c(-c3cccnc3)c(C#N)c2c(=O)n1CCOc1ccc(Cl)cc1-c1cccc(C(=O)O)c1 [compound 388]
< 50	12.3	Cc1cc(-c2cc(Cl)ccc2OCCn2c(C)nc3cc(C(F)(F)F)c(-c4cnc(C)c(C)c4)c(C#N)c3c2=O)c2scc(C(=O)O)c2n1 [compound 389]
< 50	1.75	Cc1cc(-c2cc(Cl)ccc2OCCn2c(C)nc3cc(C(F)(F)F)c(Cc4ccccn4)nc3c2=O)c2scc(C(=O)O)c2n1 [compound 390]
< 50	3.52	CCCCc1nc2c(=O)n(CCOc3ccc(Cl)cc3-c3cc(C)nc4c(C(=O)O)csc34)c(C)nc2cc1C(F)(F)F [compound 391]
< 50	25.1	Cc1cc(-c2cc(Cl)ccc2OCCn2c(C)nc3cc(Cl)c(-c4cc(F)cnc4C)c(C#N)c3c2=O)c2scc(C(=O)O)c2n1 [compound 392]
< 50	11.8	Cc1cc(-c2c(Cl)cc3nc(C)n(CCOc4ccc(Cl)cc4-c4cc(C)nc5c(C(=O)O)csc45)c(=O)c3c2C#N)ccn1 [compound 393]
< 50	21.8	Cc1cc(-c2cc(Cl)ccc2OCCn2c(C)nc3cc(Cl)c(-c4cncc(F)c4)c(C#N)c3c2=O)c2scc(C(=O)O)c2n1 [compound 394]
< 50	9.68	Cc1cc(-c2cc(Cl)ccc2OCCn2c(C)nc3cc(Cl)c(-c4cccnc4C)c(C#N)c3c2=O)c2scc(C(=O)O)c2n1 [compound 395]
< 50	18.1	Cc1cc(-c2c(Cl)cc3nc(C)n(CCOc4ccc(Cl)cc4-c4cc(C)nc5c(C(=O)O)csc45)c(=O)c3c2C#N)cc(C)n1 [compound 396]
< 50	10.5	Cc1cc(-c2cc(Cl)ccc2OCCn2c(C)nc3cc(Cl)c(-c4ccc(N(C)C)nc4)c(C#N)c3c2=O)c2scc(C(=O)O)c2n1 [compound 397]
50 to 1000	149	Cc1cc(-c2cc(Cl)ccc2OCCn2c(C)nc3cc(C(F)(F)F)cc(C#N)c3c2=O)c2scc(C(=O)NCC(=O)O)c2n1 [compound 398]
